The values that follow come from PubChem BioAssay AID1259407 (Chemical Carcinogenesis Research Information System (CCRIS), 2018).

In this data set the test system is CCRIS mutagenicity, Ames/micronucleus/aberration tests. Briefly: CCRIS mutagenicity studies.
[1] abbreviates: Test System: AMES SALMONELLA TYPHIMURIUM, Strain/Indicator: TA100, Metabolic Activation: NONE, Method: PREINCUBATION
[2] abbreviates: Test System: AMES SALMONELLA TYPHIMURIUM, Strain/Indicator: TA98, Metabolic Activation: NONE, Method: STANDARD PLATE.
The mark [3] stands for this setting: Test System: AMES SALMONELLA TYPHIMURIUM, Strain/Indicator: TA98, Metabolic Activation: RAT, LIVER, S-9, AROCLOR 1254, Method: STANDARD PLATE.
[4] abbreviates: Test System: AMES SALMONELLA TYPHIMURIUM, Strain/Indicator: TA100, Metabolic Activation: NONE, Method: STANDARD PLATE.
[5] abbreviates: Test System: AMES SALMONELLA TYPHIMURIUM, Strain/Indicator: TA100, Metabolic Activation: RAT, LIVER, S-9, AROCLOR 1254, Method: STANDARD PLATE.
Setting [6] is: Test System: AMES SALMONELLA TYPHIMURIUM, Strain/Indicator: TA1537, Metabolic Activation: NONE, Method: STANDARD PLATE.
Setting [7] is: Test System: AMES SALMONELLA TYPHIMURIUM, Strain/Indicator: TA1537, Metabolic Activation: RAT, LIVER, S-9, AROCLOR 1254, Method: STANDARD PLATE.
[8] abbreviates: Test System: AMES SALMONELLA TYPHIMURIUM, Strain/Indicator: TA1535, Metabolic Activation: NONE, Method: STANDARD PLATE.
The mark [9] stands for this setting: Test System: AMES SALMONELLA TYPHIMURIUM, Strain/Indicator: TA1535, Metabolic Activation: RAT, LIVER, S-9, AROCLOR 1254, Method: STANDARD PLATE.
Setting [10] is: Test System: AMES SALMONELLA TYPHIMURIUM, Strain/Indicator: TA1538, Metabolic Activation: NONE, Method: STANDARD PLATE.
[11] abbreviates: Test System: AMES SALMONELLA TYPHIMURIUM, Strain/Indicator: TA1538, Metabolic Activation: RAT, LIVER, S-9, AROCLOR 1254, Method: STANDARD PLATE.

Structures are written as SMILES. Active and inactive are the calls of the source. How the calls were made is not given here.

As to `CCCCCCCOc1ccccc1NC(=O)OCCN1CCCCC1`, the mutagenic call is, setting by setting: (Test System: AMES SALMONELLA TYPHIMURIUM, Strain/Indicator: TA98, Metabolic Activation: MOUSE, LIVER, S-9, AROCLOR 1254, Method: PREINCUBATION) “inactive; negative”; (Test System: AMES SALMONELLA TYPHIMURIUM, Strain/Indicator: TA98, Metabolic Activation: NONE, Method: PREINCUBATION) “inactive; negative”; (Test System: AMES SALMONELLA TYPHIMURIUM, Strain/Indicator: TA100, Metabolic Activation: MOUSE, LIVER, S-9, AROCLOR 1254, Method: PREINCUBATION) “inactive; negative”; under setting [1], “inactive; negative”; (Test System: AMES SALMONELLA TYPHIMURIUM, Strain/Indicator: TA1535, Metabolic Activation: MOUSE, LIVER, S-9, AROCLOR 1254, Method: PREINCUBATION) “inactive; negative”; (Test System: AMES SALMONELLA TYPHIMURIUM, Strain/Indicator: TA1535, Metabolic Activation: NONE, Method: PREINCUBATION) “inactive; negative”. The mutagenic call is, setting by setting: (Test System: AMES SALMONELLA TYPHIMURIUM, Strain/Indicator: TA1538, Metabolic Activation: MOUSE, LIVER, S-9, AROCLOR 1254, Method: PREINCUBATION) “inactive; negative”; (Test System: AMES SALMONELLA TYPHIMURIUM, Strain/Indicator: TA1538, Metabolic Activation: NONE, Method: PREINCUBATION) “inactive; negative”; (Test System: AMES SALMONELLA TYPHIMURIUM, Strain/Indicator: TA1978, Metabolic Activation: MOUSE, LIVER, S-9, AROCLOR 1254, Method: PREINCUBATION) “inactive; negative”; (Test System: AMES SALMONELLA TYPHIMURIUM, Strain/Indicator: TA1978, Metabolic Activation: NONE, Method: PREINCUBATION) “inactive; negative”; (Test System: E. COLI, Strain/Indicator: CM611 UVRA/LEXA, Metabolic Activation: MOUSE, LIVER, S-9, AROCLOR 1254, Method: PREINCUBATION) “inactive; negative”; (Test System: E. COLI, Strain/Indicator: CM611 UVRA/LEXA, Metabolic Activation: NONE, Method: PREINCUBATION) “inactive; negative”. For the same compound, the mutagenic call is, setting by setting: (Test System: E. COLI, Strain/Indicator: WP2, Metabolic Activation: MOUSE, LIVER, S-9, AROCLOR 1254, Method: PREINCUBATION) “inactive; negative”; (Test System: E. COLI, Strain/Indicator: WP2, Metabolic Activation: NONE, Method: PREINCUBATION) “inactive; negative”; (Test System: E. COLI, Strain/Indicator: WP2 UVRA, Metabolic Activation: MOUSE, LIVER, S-9, AROCLOR 1254, Method: PREINCUBATION) “inactive; negative”; (Test System: E. COLI, Strain/Indicator: WP2 UVRA, Metabolic Activation: NONE, Method: PREINCUBATION) “inactive; negative”; (Test System: E. COLI, Strain/Indicator: WP67 UVRA/POLA, Metabolic Activation: MOUSE, LIVER, S-9, AROCLOR 1254, Method: PREINCUBATION) “inactive; negative”; (Test System: E. COLI, Strain/Indicator: WP67 UVRA/POLA, Metabolic Activation: NONE, Method: PREINCUBATION) “inactive; negative”.
Consider `O=C1CCC2(O)c3c(ccc(O)c31)-c1ccc(O)c3c1C2C1OC1C3=O` (stereo unspecified), for which the mutagenic call reads like this: under setting [2], “active; positive”; under setting [3], “active; positive”; under setting [4], “active; positive”; under setting [5], “active; positive”; under setting [6], “active; positive”; under setting [7], “active; positive”.
Turning to `O=C1CCC(N2C(=O)c3ccccc3C2=O)C(=O)N1` (stereo unspecified), the mutagenic call was “inactive; negative” (Test System: AMES SALMONELLA TYPHIMURIUM, Strain/Indicator: TA97, Metabolic Activation: NONE, Method: STANDARD PLATE); “inactive; negative” (Test System: AMES SALMONELLA TYPHIMURIUM, Strain/Indicator: TA97, Metabolic Activation: RAT, LIVER, S-9, AROCLOR 1254, Method: STANDARD PLATE); “inactive; negative” under setting [2]; “inactive; negative” (Test System: AMES SALMONELLA TYPHIMURIUM, Strain/Indicator: TA98, Metabolic Activation: RAT, LIVER, S-9, AROCLOR 1254 (4, 10 OR 30%), Method: PREINCUBATION); “inactive; negative” under setting [3]; “inactive; negative” under setting [4]. The mutagenic call reads like this: (Test System: AMES SALMONELLA TYPHIMURIUM, Strain/Indicator: TA100, Metabolic Activation: RAT, LIVER, S-9, AROCLOR 1254 (10%), Method: PREINCUBATION) “inactive; negative”; under setting [5], “inactive; negative”; under setting [8], “inactive; negative”; under setting [9], “inactive; negative”; under setting [6], “inactive; negative”; under setting [7], “inactive; negative”. In addition, the mutagenic call is, setting by setting: under setting [10], “inactive; negative”; under setting [11], “inactive; negative”; (Test System: MOUSE LYMPHOMA, Strain/Indicator: L5178Y (TK+/TK-), Metabolic Activation: NONE, Method: MICROWELL) “inactive; negative”; (Test System: MOUSE LYMPHOMA, Strain/Indicator: L5178Y (TK+/TK-), Metabolic Activation: RAT, LIVER, S-9, PHENOBARBITAL AND BETA-NAPHTHOFLAVONE, Method: MICROWELL) “inactive; negative”.
`CN(C)c1ccc(/C=C/C=O)cc1`: the mutagenic call under setting [1] is “inactive; negative” and the mutagenic call (Test System: AMES SALMONELLA TYPHIMURIUM, Strain/Indicator: TA100, Metabolic Activation: RAT, LIVER, S-9, AROCLOR 1254, Method: PREINCUBATION) is “inactive; negative”.
`Cc1ccc(N=Nc2c(O)ccc3ccccc23)c(S(=O)(=O)O)c1`: the mutagenic call reads like this: under setting [2], “inactive; negative”; (Test System: AMES SALMONELLA TYPHIMURIUM, Strain/Indicator: TA98, Metabolic Activation: RAT, LIVER, S-9, Method: STANDARD PLATE) “inactive; negative”; under setting [4], “inactive; negative”; (Test System: AMES SALMONELLA TYPHIMURIUM, Strain/Indicator: TA100, Metabolic Activation: RAT, LIVER, S-9, Method: STANDARD PLATE) “inactive; negative”.
In the case of `O=[N+]([O-])C1=Cc2c3c1cccc3cc1ccc3ccccc3c21`, the mutagenic call under setting [2] is “active; positive”; the mutagenic call under setting [3] was “active; positive”; the mutagenic call under setting [4] was “inactive; negative”; the mutagenic call under setting [5] was “inactive; negative”; the mutagenic call under setting [8] is “inactive; negative”; the mutagenic call under setting [9] is “inactive; negative”. The mutagenic call runs as follows: under setting [6], “active; positive”; under setting [7], “inactive; negative”; under setting [10], “active; positive”; under setting [11], “active; positive”.
